These results are taken from US5409932A, “Piperazine-substituted pyrroloanthracenes” (Bayer AG, priority 1993, dated 1995).

Usually pIC50 stands for −log10 of the IC50, conventionally taken in molar units. A lower pIC50 goes with a high IC50.

The subject of test [1] is Adjuvant Arthritis model in the Rat. Description: Adjuvant Arthritis model in the Rat (paw swelling). The class given is in vivo. Particulars: Lewis rats; for inhibition in vivo at 10 mg/kg: Rattus norvegicus, ip, 384 h, 10 mg/kg i.p., days 0, 1, 2, 5, 7, 9, 12 and 14, day 16 vs day 0, read-out: Inhibition of the swelling (%), after administration of 10 mg/kg i.p.; for Inhibition of the swelling (%), after administration of 10 mg/kg i.p.: days 0, 1, 2, 5, 7, 9, 12 and 14, day 16 vs day 0. As for the experimental part:
Adjuvant Arthritis model in the Rat
Freund's adjuvant (FA) is prepared by addition of 10 mg/ml of heat-killed Mycobacterium butyricum to extra-heavy mineral oil. Lewis rats receive a 0.1 ml injection of FA (1 mg/animal) subcutaneously in the right hind paw. An acute inflammation takes place there, which is characterized by reddening, edema and a predominant neutrophilic cell infiltration (primary reaction). Tumescent areas in the treated paw on day 5 are followed between day 10-12 by an increase in the swelling (chronic inflammatory reaction) and the occurrence of a swelling in the opposite untreated paw (secondary immune response).
The cell infiltration of the chronic inflammation and the second immune response are mainly mononuclear, which indicates the presence of T-cell mediated immunity. The animals are observed daily, and the swelling is measured in millimeters on days 12 and 16 using a hand-adjustable micrometer. The swelling reaches its peak on the 16th day, on which the animals are sacrificed and tissue samples are taken for histological evaluation.
The extent of the swelling is determined by calculation of the greatest difference in the malleolus diameter between the 16th and the 0th day.
The animals receive the compounds according to the invention in a suspension of 5% polyethylene glycol and 0.5% Tween 80 in phosphate buffer solution p.o. or i.p. on days 0, 1, 2, 5, 7, 9, 12 and 14 [cf. for this purpose L. Sokoloff, 1984, Int. Rev. Exp. Pathol. 26, 107; M. E. J. Bittingham et al., 1989, J. Exp. Med. 171, 339; K. M. Conholly et al., 1989, Agents and Actions 27, 328].

The next test deals with human T cells. Description: Inhibition of 5-HT-dependent T Cell Proliferation. The class given is cell-based. Particulars: monocyte-free human T cells stimulated with PWM and 5-HT, 3H-thymidine incorporation, 7 days. The source says:
The in vitro activity of the compounds according to the invention results from their capability to inhibit T cell proliferation, which is previously stimulated by serotonin.
Inhibition of 5-HT-dependent T Cell Proliferation
Peripheral mononuclear blood cells (PBMC) are obtained from the buffy coat of the blood of healthy subjects. After isolation by means of isolymph gradients (Pharmacia), the PBMC are washed twice and used directly. Purified T cells are obtained by E rosette formation with sheep erythrocytes [cf. Blue, M.-L. , J. F. Daley, H. Levine, K. A. Craig and S. F. Schlossmann, 1986, Biosynthesis and surface expression of T8 by peripheral blood T4+cells in vitro, J. Immunol. 137, 1202]. Monocytes are partially removed by adhesion to tissue culture plates or flasks. PBMC, T cells or purified T cells (depleted in monocytes) at 5×10^5 /ml, 100 μl/well are cultured in RPMI 1640 medium with 10% fetal calf serum (GIBCO) and L-glutamine in 96-well microculture plates (Becton--Dickinson)under a 5% CO2 atmosphere at 37° C. for 7 days. The cultures are treated with 1 μCi of ^3 H-thymidine for 6 h on the 7th day and collected on filter paper, and the incorporated radioactivity is determined by means of liquid scintillation counting.
The test substances are dissolved in 10 mM HCl in order to achieve a final concentration of 1 mM in each case. The compounds are diluted serially 3×with medium in order to obtain a final concentration between 33 μM-0.1 μM. PWM (1:200, pokeweed mitogen) and 5-HT (100 μm, serotonin), which contain the test substances, are added to monocyte-free human T cells. The positive control (maximum proliferation) is obtained from cultures containing T cells, PWM and 5-HT. The negative control (minimal proliferation) is obtained from cultures containing T cells and PWM without 5-HT. The inhibitory activity of the test substances is expressed as the IC50 in μM. (see also WO 92/04015)

SMILES strings stand for the structures. pIC50: −log10 of the molar value. Bounds are passed on as bounds.

Turning to `O=C1C2C3c4ccccc4C(c4ccccc43)C2C(=O)N1CCCN1CCN(c2ccc(Cl)cc2)CC1` (stereo not shown) [Example 2], the inhibition in vivo at 10 mg/kg in test [1] was 4%.
For the compound `Cc1ccc(N2CCN(CCCN3C(=O)C4C5c6ccccc6C(c6ccccc65)C4C3=O)CC2)cc1` (stereo not shown) [Example 11], the inhibition in vivo at 10 mg/kg in test [1] came to 32%. Further, the pIC50 with human T cells (Homo sapiens, T-cell) is less than 5.00.
The matching figures for `CC12c3ccccc3C(c3ccccc31)C1C(=O)N(CCCN3CCN(c4ccccc4)CC3)C(=O)C12` (stereo not shown) [Example 29]: 24% and less than 5.00.
On to `CC12c3ccccc3C(c3ccccc31)C1C(=O)N(CCCN3CCN(c4ccc(Cl)cc4)CC3)C(=O)C12` (stereo not shown) [Example 30], for which, in test [1], the inhibition in vivo at 10 mg/kg worked out at 47%. In addition, the pIC50 with human T cells (Homo sapiens, T-cell) was 5.30.
For the compound `O=C1C2C3c4ccccc4C(CO)(c4ccccc43)C2C(=O)N1CCCN1CCN(c2ccc(F)cc2)CC1` (stereo not shown) [Example 33], in test [1], the inhibition in vivo at 10 mg/kg was determined as 33%. Besides, the pIC50 in the test with human T cells (Homo sapiens, T-cell) was less than 5.00.
The matching figures for `CC12C(=O)N(CCCN3CCN(c4ccccc4)CC3)C(=O)C1C1c3ccccc3C2c2ccccc21` (stereo not shown) [Example 39]: 20% and less than 5.00.
Take `CC12C(=O)N(CCCN3CCN(c4ccc(F)cc4)CC3)C(=O)C1C1c3ccccc3C2c2ccccc21` (stereo not shown) [Example 40]: the inhibition in vivo at 10 mg/kg in test [1] came out at 29%. In addition, the pIC50 in the test on human T cells (Homo sapiens, T-cell) is 5.30.
The like results for `Fc1ccc(N2CCN(CCCN3CC4C5c6ccccc6C(c6ccccc65)C4C3)CC2)cc1` (stereo not shown) [Example 58, 13-{3-[4-(4-Fluorophenyl)-piperazin-1-yl]propyl}-9,10,11,12,14,15-hexahydro-9,10[3', 4']pyrroloanthracene] were, in that order, 40% and 5.30.
With `Clc1ccc(N2CCN(CCCN3CC4C5c6ccccc6C(c6ccccc65)C4C3)CC2)cc1` (stereo not shown) [Example 59], the “Inhibition of the swelling (%), after administration of 10 mg/kg i.p.” value in test [1] is listed as 53%. In the test with human T cells (Homo sapiens, T-cell), this compound had a pIC50 of 5.52.
Take `c1ccc(N2CCN(CCN3CC4C5c6ccccc6C(c6ccccc65)C4C3)CC2)cc1` (stereo not shown) [Example 60]: in test [1], the inhibition in vivo at 10 mg/kg is 40%. In the test with human T cells (Homo sapiens, T-cell), this compound showed a pIC50 of 5.30.
The like results for `c1ccc(N2CCN(CCCN3CC4C5c6ccccc6C(c6ccccc65)C4C3)CC2)cc1` (stereo not shown) [Example 61] were, in that order, 50% and 5.30.
The matching figures for `c1ccc(N2CCN(CCCCN3CC4C5c6ccccc6C(c6ccccc65)C4C3)CC2)cc1` (stereo not shown) [Example 62]: 90% and 5.30.
The like results for `c1ccc(N2CCN(CCCCCN3CC4C5c6ccccc6C(c6ccccc65)C4C3)CC2)cc1` (stereo not shown) [Example 63] were, in that order, 26% and 6.30.
As to `c1ccc(N2CCN(CCCCCCN3CC4C5c6ccccc6C(c6ccccc65)C4C3)CC2)cc1` (stereo not shown) [Example 64], the inhibition in vivo at 10 mg/kg in test [1] came to 76%. Besides, the pIC50 with human T cells (Homo sapiens, T-cell) is 6.00.
Take `COc1ccccc1N1CCN(CCCCN2CC3C4c5ccccc5C(c5ccccc54)C3C2)CC1` (stereo not shown) [Example 71]: the inhibition in vivo at 10 mg/kg in test [1] stood at 82%. This compound also gave a pIC50 in the test with human T cells (Homo sapiens, T-cell) of 5.30.
Take `Fc1ccccc1N1CCN(CCCCN2CC3C4c5ccccc5C(c5ccccc54)C3C2)CC1` (stereo not shown) [Example 72]: the inhibition in vivo at 10 mg/kg in test [1] turned out to be 87%. This compound also showed a pIC50 with human T cells (Homo sapiens, T-cell) of 5.70.
As to `Cc1ccc(N2CCN(CCCCN3CC4C5c6ccccc6C(c6ccccc65)C4C3)CC2)cc1` (stereo not shown) [Example 74], in test [1], the inhibition in vivo at 10 mg/kg worked out at 76%. For the same compound, the pIC50 in the test with human T cells (Homo sapiens, T-cell) is 6.22.
As to `Clc1ccccc1N1CCN(CCCN2CC3C4c5ccccc5C(c5ccccc54)C3C2)CC1` (stereo not shown) [Example 82], the inhibition in vivo at 10 mg/kg in test [1] worked out at 35%. The compound also had a pIC50 with human T cells (Homo sapiens, T-cell) of 5.30.
The matching figures for `CCOc1ccccc1N1CCN(CCCN2CC3C4c5ccccc5C(c5ccccc54)C3C2)CC1` (stereo not shown) [Example 87]: 22% and 5.30.
`Cc1cccc(C)c1N1CCN(CCCN2CC3C4c5ccccc5C(c5ccccc54)C3C2)CC1` (stereo not shown) [Example 88]: the inhibition in vivo at 10 mg/kg in test [1] worked out at 73%. Besides, the pIC50 in the test with human T cells (Homo sapiens, T-cell) is 6.00.
`Cc1ccc(N2CCN(CCCN3CC4C5c6ccccc6C(c6ccccc65)C4C3)CC2)c(C)c1` (stereo not shown) [Example 90]: the inhibition in vivo at 10 mg/kg in test [1] was found to be 45%. This compound also gave a pIC50 with human T cells (Homo sapiens, T-cell) of 5.30.
`Fc1ccc(N2CCN(CCCN3CC4C5c6ccccc6C(Cl)(c6ccccc65)C4C3)CC2)cc1` (stereo not shown) [Example 100]: the negative logarithm of the IC50 (pIC50) in the test on human T cells (Homo sapiens, T-cell) was 5.70.
Still for that read-out and setting: with `NCC12c3ccccc3C(c3ccccc31)C1CN(CCCN3CCN(c4ccc(F)cc4)CC3)CC12` (stereo not shown) [Example 101] the figure was 6.00; with `C=CC12c3ccccc3C(c3ccccc31)C1CN(CCCN3CCN(c4ccc(F)cc4)CC3)CC12` (stereo not shown) [Example 102], 5.70.
In turn, `Fc1ccc(N2CCN(CCCN3CC4C5c6ccccc6C(C=Cc6ccccc6)(c6ccccc65)C4C3)CC2)cc1` (stereo not shown) [Example 103] gave a pIC50 in the test on human T cells (Homo sapiens, T-cell) of 5.70.
`CC12CN(CCCN3CCN(c4ccccc4)CC3)CC1C1c3ccccc3C2c2ccccc21` (stereo not shown) [Example 104]: in the test with human T cells (Homo sapiens, T-cell), the pIC50 is 5.70.
In turn, `CC12CN(CCCN3CCN(c4ccc(F)cc4)CC3)CC1C1c3ccccc3C2c2ccccc21` (stereo not shown) [Example 105] had a pIC50 with human T cells (Homo sapiens, T-cell) of 5.70.
Take `COc1cc(N2CCN(CCCN3CC4C5c6ccccc6C(c6ccccc65)C4C3)CC2)cc(OC)c1OC` (stereo not shown) [Example 106]: the pIC50 in the test with human T cells (Homo sapiens, T-cell) is 6.30.
Compound `COC(OC)C12c3ccccc3C(c3ccccc31)C1CN(CCCN3CCN(c4ccc(F)cc4)CC3)CC12` (stereo not shown) [Example 107] had a pIC50 in the test with human T cells (Homo sapiens, T-cell) of 6.00.
`Clc1ccc(N2CCN(CCCN3CC4C5c6ccccc6C(c6ccccc65)C4C3)CC2)cc1` (stereo not shown) [Example 108]: in test [1], the “Inhibition of the swelling (%), after administration of 10 mg/kg i.p.” value is reported as 55%. Also, the pIC50 in the test with human T cells is 5.40.
With `Clc1ccc(N2CCN(CCCN3CC4C5c6ccccc6C(c6ccccc65)C4C3)CC2)cc1` (stereo not shown) [Example 109], the “Inhibition of the swelling (%), after administration of 10 mg/kg i.p.” value in test [1] is reported as 34%. The same compound showed a pIC50 in the test with human T cells of 5.30.
In turn, `CC12c3ccccc3C(C)(c3ccccc31)C1C(=O)N(CCCN3CCN(c4ccc(F)cc4)CC3)C(=O)C12` (stereo not shown) [Example 110] had a pIC50 with human T cells of 5.70.
As for `O=C1C2C(C(=O)N1CCCN1CCN(c3ccc(F)cc3)CC1)C1(Br)c3ccccc3C2(Br)c2ccccc21` (stereo not shown) [Example 111], the pIC50 in the test on human T cells was 5.00.
Turning to `O=C1C2C(CN1CCCN1CCN(c3ccc(F)cc3)CC1)C1(Cl)c3ccccc3C2(Cl)c2ccccc21` (stereo not shown) [Example 112], the pIC50 in the test on human T cells (Homo sapiens, T-cell) is 5.30.
The compound `O=C1C2C3c4ccccc4C(CCl)(c4ccccc43)C2CN1CCCN1CCN(c2ccc(F)cc2)CC1` (stereo not shown) [Example 113] had a pIC50 in the test on human T cells (Homo sapiens, T-cell) of 5.70.
Same read-out and setting: with `O=C1C2C(CN1CCCN1CCN(c3ccc(F)cc3)CC1)C1c3ccccc3C2(c2ccccc2)c2ccccc21` (stereo not shown) [Example 114] the figure was 5.70.
For the compound `O=C1C2C3c4ccccc4C(c4ccccc43)C2CN1CCCN1CCN(c2cc(Cl)cc(Cl)c2)CC1` (stereo not shown) [Example 115], the pIC50 in the test with human T cells (Homo sapiens, T-cell) was 5.70.
Still for that read-out and setting: with `O=C1C2C(CN1CCCN1CCN(c3ccccc3)CC1)C1(Cl)c3ccccc3C2(Cl)c2ccccc21` (stereo not shown) [Example 116] the figure was 5.70; with `O=C1N(CCCN2CCN(c3ccc(F)cc3)CC2)CC2C3c4ccccc4C(c4ccccc43)C12c1ccccc1` (stereo not shown) [Example 117], 5.70.
